Data set [1] deals with T1, ADP-glucose pyrophosphorylase enzyme from rice endosperm (Oryza sativa subsp. japonica, UniProt P15280+Q7G065).
T1 construct: host or cells: rice endosperm
T1 sequence (P15280 1-479 isoform P15280-2): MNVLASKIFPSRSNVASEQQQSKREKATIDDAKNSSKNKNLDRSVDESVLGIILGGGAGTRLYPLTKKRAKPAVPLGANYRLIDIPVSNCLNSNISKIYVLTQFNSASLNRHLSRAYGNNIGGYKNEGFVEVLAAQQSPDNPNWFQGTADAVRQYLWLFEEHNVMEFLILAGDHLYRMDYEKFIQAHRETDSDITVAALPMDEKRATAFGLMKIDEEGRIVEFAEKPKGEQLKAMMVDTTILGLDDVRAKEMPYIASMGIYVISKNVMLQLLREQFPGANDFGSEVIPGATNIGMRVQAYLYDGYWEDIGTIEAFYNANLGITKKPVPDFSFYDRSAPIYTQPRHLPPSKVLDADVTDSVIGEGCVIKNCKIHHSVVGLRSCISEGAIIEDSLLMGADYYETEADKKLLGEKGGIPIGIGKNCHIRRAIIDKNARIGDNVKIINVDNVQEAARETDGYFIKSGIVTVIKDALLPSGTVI
T1 sequence (Q7G065 1-518): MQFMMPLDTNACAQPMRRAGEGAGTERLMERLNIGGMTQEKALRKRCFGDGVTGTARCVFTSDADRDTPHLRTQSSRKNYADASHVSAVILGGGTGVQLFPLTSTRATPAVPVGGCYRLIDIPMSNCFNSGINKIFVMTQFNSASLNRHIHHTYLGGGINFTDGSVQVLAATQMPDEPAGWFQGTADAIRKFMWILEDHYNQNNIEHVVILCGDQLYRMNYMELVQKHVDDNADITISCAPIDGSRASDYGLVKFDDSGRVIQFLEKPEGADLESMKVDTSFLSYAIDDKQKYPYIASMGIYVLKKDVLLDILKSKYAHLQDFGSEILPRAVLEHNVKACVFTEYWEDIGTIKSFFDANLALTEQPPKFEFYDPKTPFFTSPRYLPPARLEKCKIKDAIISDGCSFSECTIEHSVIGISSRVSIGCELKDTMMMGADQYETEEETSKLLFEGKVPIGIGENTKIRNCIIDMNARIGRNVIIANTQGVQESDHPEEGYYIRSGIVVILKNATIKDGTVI
Particulars: 5 mM 3-phosphoglycerate; cited from earlier work.

Data set [2] has as its target T2, wheat leaf ADP-glucose pyrophosphorylase (Triticum aestivum, UniProt P12298).
T2 sequence (P12298 1-301): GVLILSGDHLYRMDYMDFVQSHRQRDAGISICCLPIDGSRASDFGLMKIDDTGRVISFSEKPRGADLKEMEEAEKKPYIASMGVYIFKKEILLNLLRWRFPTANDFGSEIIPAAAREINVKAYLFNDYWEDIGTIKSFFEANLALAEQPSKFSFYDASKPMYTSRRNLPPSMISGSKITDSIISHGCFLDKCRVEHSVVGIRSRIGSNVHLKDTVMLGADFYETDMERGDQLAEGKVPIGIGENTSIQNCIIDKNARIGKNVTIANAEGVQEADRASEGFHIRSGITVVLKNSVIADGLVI
T2 sequence (P30523 2-473 partner): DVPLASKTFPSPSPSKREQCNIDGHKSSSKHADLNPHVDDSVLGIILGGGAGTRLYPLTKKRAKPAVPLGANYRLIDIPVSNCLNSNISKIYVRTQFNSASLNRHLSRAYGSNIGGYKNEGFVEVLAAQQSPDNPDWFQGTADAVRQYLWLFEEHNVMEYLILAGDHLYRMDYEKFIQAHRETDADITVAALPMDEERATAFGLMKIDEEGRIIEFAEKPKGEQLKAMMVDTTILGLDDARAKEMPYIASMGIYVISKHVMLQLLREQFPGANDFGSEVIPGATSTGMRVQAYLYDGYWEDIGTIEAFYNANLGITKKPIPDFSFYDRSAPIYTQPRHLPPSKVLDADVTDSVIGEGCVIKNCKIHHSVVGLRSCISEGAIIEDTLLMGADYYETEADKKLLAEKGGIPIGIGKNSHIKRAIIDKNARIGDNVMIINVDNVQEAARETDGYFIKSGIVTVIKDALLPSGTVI
Nature of the data set: biochemical. Particulars: read-out: fold activation of enzyme.

Data set [3] has as its target T3, wheat endosperm ADP-glucose pyrophosphorylase (Triticum aestivum, UniProt P12299+P30523).
T3 sequence (P12299 63-522): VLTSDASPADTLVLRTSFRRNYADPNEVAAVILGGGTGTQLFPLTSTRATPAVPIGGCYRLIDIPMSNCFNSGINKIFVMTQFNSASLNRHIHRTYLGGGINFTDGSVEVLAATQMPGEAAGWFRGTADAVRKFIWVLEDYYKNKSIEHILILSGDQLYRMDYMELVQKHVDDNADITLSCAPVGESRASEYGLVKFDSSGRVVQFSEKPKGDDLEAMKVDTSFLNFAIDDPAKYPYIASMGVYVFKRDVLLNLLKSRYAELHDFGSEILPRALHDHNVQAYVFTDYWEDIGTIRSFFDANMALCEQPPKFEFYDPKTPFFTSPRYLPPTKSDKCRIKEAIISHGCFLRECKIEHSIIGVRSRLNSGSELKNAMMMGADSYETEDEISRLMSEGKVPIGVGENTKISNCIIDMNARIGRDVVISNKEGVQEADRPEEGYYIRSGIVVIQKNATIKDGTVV
T3 sequence (P30523 1-473): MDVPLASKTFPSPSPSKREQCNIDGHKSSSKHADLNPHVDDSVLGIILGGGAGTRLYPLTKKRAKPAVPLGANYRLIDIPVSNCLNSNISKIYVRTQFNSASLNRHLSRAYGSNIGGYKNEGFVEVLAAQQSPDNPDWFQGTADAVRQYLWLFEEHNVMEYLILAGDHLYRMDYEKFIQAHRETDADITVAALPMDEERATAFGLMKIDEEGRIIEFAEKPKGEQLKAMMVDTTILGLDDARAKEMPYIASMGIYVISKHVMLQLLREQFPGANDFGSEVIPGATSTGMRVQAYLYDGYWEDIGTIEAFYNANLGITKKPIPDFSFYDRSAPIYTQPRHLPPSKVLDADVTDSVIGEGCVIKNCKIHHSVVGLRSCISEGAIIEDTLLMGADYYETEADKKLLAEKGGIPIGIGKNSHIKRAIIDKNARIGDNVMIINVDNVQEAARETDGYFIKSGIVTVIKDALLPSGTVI

The subject of data set [4] is plant leaf ADP-glucose pyrophosphorylase. The conditions noted are these: cited from earlier work; for activation in vitro: all plant leaf enzymes studied.
Data set [5] has as its target T3, wheat endosperm ADP-glucose pyrophosphorylase. Nature of the data set: Screen of 3-phosphoglycerate analogues for antagonism of phosphate inhibition. The data set is classed as biochemical. On the set-up: Partially-purified wheat endosperm ADP-glucose pyrophosphorylase; from tissue; host or cells: wheat endosperm. Particulars: compound 3 mM, 1 mM phosphate. As for the experimental part: There is clear evidence that the wheat endosperm enzyme has allosteric properties by virtue of being inhibited by phosphate and the inhibition being partially relieved by 3-phosphoglycerate. […] A careful analysis of various chemical that were chemically very closely related to 3-phosphoglycerate was carried out.
Seventeen compounds were tested at 3 mM concentration for their ability to antagonise the inhibition of the enzyme by 1 mM phosphate. The first series of compounds tested were phosphonate analogues of 3-phosphoglycerate. […] The second series tested were derivatives bearing structural similarity to 3-phosphoglycerate. Of these, only one compound gave weak alleviation of phosphate inhibition.

Data set [6] deals with T2, wheat leaf ADP-glucose pyrophosphorylase. Particulars: read-out: concentration required to achieve half-maximal inhibition of enzyme activity.

Like-named read-outs stand apart in the source and are kept apart here.

Consider `O=C(O)C(O)COP(=O)(O)O` (centres unmarked) [3-phosphoglycerate], for which the “fold activation in vitro” value in data set [1] was 1,2 fold. In addition, in data set [2], the fold induction at 100 µM is 14.5 and the fold induction at 1000 µM was 10.
For the compound `O=C(CO)[C@@H](O)[C@H](O)[C@H](O)COP(=O)(O)O` [Fructose-6-phosphate, fructose-6-phosphate], the “alleviation of phosphate inhibition” value in data set [3] (wheat endosperm enzyme) was “weakly alleviates phosphate inhibition”. Also, the activation in vitro result in data set [4] was “to a lesser extent”.
For the compound `O=S(=O)(O)O` [Sulphate], the “antagonism of inhibition of the enzyme by phosphate” value in data set [5] is listed as “antagonised phosphate inhibition”.
As to `O=C(COP(=O)(O)O)[C@@H](O)[C@H](O)[C@H](O)COP(=O)(O)O` [fructose-1,6-bisphosphate], the “activation of enzyme by fructose-1,6-bisphosphate” value in data set [3] (wheat endosperm enzyme) is “lack of detectable activation”. Further, the activation in vitro entry in data set [4] was “to a lesser extent”.
With `O=P(O)(O)O` [orthophosphate], the IC50 in data set [3] (read-out: I0.5 value for orthophosphate, in the presence of 1 mM 3-phosphoglycerate) is 1500 µM; in data set [3] (read-out: concentration required to achieve half-maximal inhibition of enzyme activity, wheat endosperm enzyme), 700 µM; in data set [4] (enzymes from plant leaves, in vitro, read-out: orthophosphate concentration for half-maximal inhibition of enzyme activity), under 100 µM; in data set [6], 56 µM.
`C=C(OP(=O)(O)O)C(=O)O` [phosphoenol pyruvate]: the activation in vitro entry in data set [4] is recorded as “to a lesser extent”.
As for `O=C(O)CC(CP(=O)(O)O)C(=O)O` (centres unmarked) [phosphonomethyl-butanedioic acid], the “antagonism of inhibition of the enzyme by phosphate” value in data set [5] is recorded as “weak antagonism of phosphate inhibition”.

The values above are taken from US5792920A, “Plants with altered ability to synthesize starch and process for obtaining them” (Imperial Chemical Industries PLC, priority 1988, dated 1998).
